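Method: 48-hour compound exposure of cells in 96-well plates, five concentrations, linear interpolation of endpoints. GI50 marks 50% less growth.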 Active and inactive are the calls of the source. Rule as the data show it: active = GI50 up to about 1.1 µM and inactive = higher.

What all share (experiment): NCI anticancer screen, dose series, 48 h
Test [1] relates to KM-20L2.
The test system of test [2] is SNB-78.
For test [3], the system named is XF498.
In test [4] the test system is LXFL 529.
Test [5] concerns M19-MEL.
Test [6] deals with DMS-273.
For test [7], the system named is RXF 631.
The subject of test [8] is DLD-1.
Test [9] deals with HOP-18.

For `C[s+]1c2ccccc2c2ccccc21`, the GI50 in test [1], in test [2], in [3], in [4], in [5] and in test [6] was > 100 µM (inactive) in each case.

Take `O=C1c2ccccc2C(=O)N1CC#CCO`: the GI50 in test [7], in test [2], in test [3], in [4], in [5] and in test [6] was > 100 µM (inactive) each time.

As for `C#Cc1cccc(N2C(=O)CCC2=O)c1`, the GI50 in [7] was 21.5 µM (inactive); in [1] it was 25.8 µM (inactive); in test [2], 18.5 µM (inactive); in test [3], 15 µM (inactive); in test [4] it was 11.1 µM (inactive); in test [5], 19.5 µM (inactive). The GI50 in [8] is 17.9 µM (inactive); in [9], 16.7 µM (inactive); in test [6], 23.2 µM (inactive).

For `Cn1ncc2c(Nc3ccc(Cl)cc3)c3ccccc3nc21`, the GI50 in [7] was 13.1 µM (inactive); in [2] it was 24.4 µM (inactive); in [3], > 10 µM (inactive); in test [4], 18.6 µM (inactive); in [5], 19.3 µM (inactive); in test [8], 11.2 µM (inactive). The GI50 is 22.3 µM (inactive) in test [9] and 15.2 µM (inactive) in [6].

On to `Cn1cnc([N+](=O)[O-])c1Sc1nc2ccccc2[nH]1`, for which the GI50 in test [1] is 16.4 µM (inactive); in test [2], 13.2 µM (inactive); in test [3] it was 3.65 µM (inactive); in test [4], 6.67 µM (inactive); in [5], 14.9 µM (inactive); in test [8], 5.6 µM (inactive). In addition, the values for the GI50 in [9] and in test [6] were 67.6 µM (inactive) and 1.91 µM (inactive), respectively.

Turning to `CC1(C)O[C@@H](CCl)C[C@H](C#N)O1`, the GI50 in test [1], in [2], in [3], in [5], in test [8] and in test [9] was > 100 µM (inactive) in each case. For the same molecule, the GI50 in [6] is > 100 µM (inactive).

Regarding `O=C1OC2C(O)COC2(O)C1(O)Cc1c[nH]c2ccccc12` (configuration not stated), the GI50 in test [1], in test [2], in test [3], in [4], in [5] and in test [8] was > 100 µM (inactive) each time. Also, the GI50 in [9] and in test [6] was > 100 µM (inactive) throughout.

On to `Cn1c(=O)c2nc(NCCO)cnc2n(C)c1=O`, for which the GI50 was > 100 µM (inactive) in test [1]; > 100 µM (inactive) in [2]; 38.9 µM (inactive) in [3]; 36.5 µM (inactive) in test [4]; 56.5 µM (inactive) in [5]; > 100 µM (inactive) in test [8]. Also, the GI50 in test [6] was 53.6 µM (inactive).

With `C/C1=C\[C@@H](O)C(=O)/C=C/C=C\c2csc(n2)[C@@H](C)NC(=O)C[C@@]2(CC1)[S+]([O-])SC(=O)[C@]2(C)O` (some centres not stated) [LEINAMYCIN], the GI50 in test [1] was 0.0881 µM (active); in test [2], 0.01 µM (active); in test [4] it was 0.0139 µM (active); in test [5], 0.0344 µM (active); in test [8] it was 0.0209 µM (active); in test [9], 0.0301 µM (active). In addition, the GI50 in test [6] is 0.0135 µM (active).

Take `COC(=O)c1nc(NN)cc(O)c1CCCCCc1c(O)nc(NN)nc1C(=O)OC`: the GI50 in [1], in test [2], in test [3], in test [4], in test [5] and in [8] was > 100 µM (inactive) in each case. Besides, the GI50 in test [9] and in test [6] was > 100 µM (inactive) each time.

`CCN(CC)CC1CCCCN1CC(=O)N1c2cc(Cl)ccc2NC(=O)CC1C` (configuration not stated): the GI50 in test [1], in test [2], in test [3], in test [4], in test [5] and in test [8] was > 100 µM (inactive) throughout. Further, in test [6], the GI50 is > 100 µM (inactive).

Turning to `Cc1cccc(C(C)C)c1NC(=O)C(=O)C(C(=O)c1ccccc1F)C1OC(=O)c2ccccc21` (configuration not stated), the GI50 is 18.6 µM (inactive) in test [7]; 29.2 µM (inactive) in [1]; 10.4 µM (inactive) in [3]; 11.9 µM (inactive) in test [4]; 11.5 µM (inactive) in [5]; 14.8 µM (inactive) in [8]. Moreover, the GI50 in test [9] is 3.59 µM (inactive); in test [6] it was 19 µM (inactive).

In the case of `CCOC(=O)/C(=C\c1ccc(N(CCC#N)CCC#N)cc1C)NC(=O)/C=C/c1ccccc1`, the GI50 in test [1], in test [2], in [3], in test [4], in test [5] and in [8] was > 100 µM (inactive) in each case. Besides, in [6], the GI50 was > 100 µM (inactive).

Take `COc1cc(OC)c(Oc2cccc(OC)c2OC)c(OC)c1`: the GI50 in test [1], in [2], in test [3], in test [4], in [5] and in [8] was > 100 µM (inactive) throughout. In addition, the GI50 is 29.5 µM (inactive) in test [9] and > 100 µM (inactive) in [6].

As for `CC[C@H](C)N(CCN)C(=O)c1cc2ccccc2c(-c2ccccc2Cl)n1`, the GI50 in [1] was 13.2 µM (inactive); in [2], 14.3 µM (inactive); in test [4], 3.3 µM (inactive); in test [6], 13.6 µM (inactive).

Take `O=C(CCN1CCCCC1)C(=Cc1ccccc1)C(=O)CCN1CCCCC1`: the GI50 was > 100 µM (inactive) in [1]; > 62.5 µM (inactive) in test [2]; > 100 µM (inactive) in test [3]; 67.3 µM (inactive) in [5]; 20 µM (inactive) in test [8]; > 10 µM (inactive) in [9]. In addition, in test [6], the GI50 was > 100 µM (inactive).

Turning to `CC(C)(C)/N=C\N(C=C(c1ccccc1)c1ccccc1)C1CCCCC1`, the GI50 in [1] was 16.9 µM (inactive); in test [2], 69 µM (inactive); in [3], 16.6 µM (inactive); in test [5], 44.2 µM (inactive); in test [8] it was 23.1 µM (inactive); in test [9] it was 52.2 µM (inactive). Moreover, the GI50 in test [6] was 46.6 µM (inactive).

For the molecule `CN(C)CCNC(=O)c1cccc2c(=O)c3ccccc3oc12`, the GI50 in test [1] was 34.9 µM (inactive); in [2] it was 37.1 µM (inactive); in [3], 31.3 µM (inactive); in [5] it was 22.9 µM (inactive); in test [8], 29.6 µM (inactive); in test [9] it was 48 µM (inactive). The GI50 in test [6] was 28.8 µM (inactive).

For the molecule `Cc1ccccc1NC(=O)C(=O)CC(=O)C1CCOC1=O` (configuration not stated), the GI50 in [1], in [2], in test [3], in test [4], in test [5] and in [8] was > 100 µM (inactive) throughout. Moreover, the GI50 in [9] is 7.29 µM (inactive); in test [6], > 100 µM (inactive).

As for `CCN(CC)CCC(=O)NC1c2ccccc2Oc2c(C)cccc21` (configuration not stated), the GI50 in test [2], in test [3], in test [4], in [5], in test [8] and in test [6] was > 100 µM (inactive) in each case.

In the case of `O=C1OCC/C1=N/O`, the GI50 in [1], in test [2], in [4], in [5], in [8] and in test [9] was > 100 µM (inactive) each time. Also, in test [6], the GI50 was > 100 µM (inactive).

Regarding `CC(C)(C)[Si](Nc1ccccc1)(c1ccccc1)c1ccccc1`, the GI50 in [7] was 15.5 µM (inactive); in test [1], 15.8 µM (inactive); in [2], 16.4 µM (inactive); in test [3], 14.6 µM (inactive); in [5], 14.2 µM (inactive); in test [9] it was 13.7 µM (inactive). In test [6], the GI50 was 13.6 µM (inactive).

With `CCOC(=O)COc1ccc(OC)c2c1C(=O)CCC2`, the GI50 in test [1], in test [2], in test [3], in [4], in test [5] and in test [9] was > 100 µM (inactive) in each case. Further, the GI50 in test [6] was > 100 µM (inactive).

Regarding `Cn1ccnc1C(c1nccn1C)C(C)(C)[N+](=O)[O-]`, the GI50 in test [7], in test [2], in test [3], in test [5], in test [8] and in [6] was > 100 µM (inactive) each time.

For the molecule `CC(C)=CC(=O)CC(=O)C(=O)Nc1ccc(Cl)c(Cl)c1`, the GI50 in test [1], in [2], in test [4], in test [5], in [8] and in test [6] was > 100 µM (inactive) throughout.

In the case of `CCOC(=O)CC(NC(=O)c1nc[nH]c1/N=N/N(C)C)C(=O)OCC` (configuration not stated), the GI50 in [4], in test [5], in test [8] and in [6] was > 100 µM (inactive) each time.

`Nc1nc(SCCC/C=C/I)nc2c1ncn2C1OC(COP(=O)(O)O)C(O)C1O` (configuration not stated): the GI50 in test [1], in test [2], in test [3], in test [4], in test [5] and in test [8] was > 100 µM (inactive) throughout. The GI50 in test [6] is > 100 µM (inactive).

Values taken from ChEMBL document CHEMBL1201862, “PubChem BioAssay data set” (2004).
